Laboratory results published in patent publication US9796671B2, “Aurora kinase inhibitors” (REGENTS OF THE UNIVERSITY OF MINNESOTA, priority 2012, dated 2017).

Experiments:
Test in all cases: Kinase profile assay (Millipore)
Assay type in all cases: biochemical
MAPK1 = biological target: T1, MAPK1 (Homo sapiens, UniProt P27361); conditions: read-out: kinase activity compared with the control
T1 construct: purchased Millipore
Protocol: (§1) A kinase profile assay was performed by Millipore, to examine other potential targets of Compound 1. Only Akt2 activity was suppressed more than 50% after 5 μM compound 1 treatment, compared with the control (Table 2). In addition, the kinase activity of Aurora A was decreased less than 25% at 5 μM Compound 1.

MEK1 = biological target: T2, MEK1 (Homo sapiens, UniProt Q02750); conditions: read-out: kinase activity compared with the control
T2 construct: purchased Millipore
T2 sequence (Q02750 whole entry, species assumed): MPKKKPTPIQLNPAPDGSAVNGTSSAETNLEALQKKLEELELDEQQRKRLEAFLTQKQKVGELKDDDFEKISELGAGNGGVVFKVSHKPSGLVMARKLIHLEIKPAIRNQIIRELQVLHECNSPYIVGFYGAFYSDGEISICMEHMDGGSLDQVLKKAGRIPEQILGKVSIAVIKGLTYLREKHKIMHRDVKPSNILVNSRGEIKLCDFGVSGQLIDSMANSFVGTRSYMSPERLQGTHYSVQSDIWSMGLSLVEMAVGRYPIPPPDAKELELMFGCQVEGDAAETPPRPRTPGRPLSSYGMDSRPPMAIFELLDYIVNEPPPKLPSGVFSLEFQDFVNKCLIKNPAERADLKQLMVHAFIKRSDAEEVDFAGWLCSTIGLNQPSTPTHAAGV
Protocol: as §1

RSK2 = biological target: T3, RSK2 (Homo sapiens, UniProt P51812); conditions: read-out: kinase activity compared with the control
T3 construct: purchased Millipore
T3 sequence (P51812 whole entry, species assumed): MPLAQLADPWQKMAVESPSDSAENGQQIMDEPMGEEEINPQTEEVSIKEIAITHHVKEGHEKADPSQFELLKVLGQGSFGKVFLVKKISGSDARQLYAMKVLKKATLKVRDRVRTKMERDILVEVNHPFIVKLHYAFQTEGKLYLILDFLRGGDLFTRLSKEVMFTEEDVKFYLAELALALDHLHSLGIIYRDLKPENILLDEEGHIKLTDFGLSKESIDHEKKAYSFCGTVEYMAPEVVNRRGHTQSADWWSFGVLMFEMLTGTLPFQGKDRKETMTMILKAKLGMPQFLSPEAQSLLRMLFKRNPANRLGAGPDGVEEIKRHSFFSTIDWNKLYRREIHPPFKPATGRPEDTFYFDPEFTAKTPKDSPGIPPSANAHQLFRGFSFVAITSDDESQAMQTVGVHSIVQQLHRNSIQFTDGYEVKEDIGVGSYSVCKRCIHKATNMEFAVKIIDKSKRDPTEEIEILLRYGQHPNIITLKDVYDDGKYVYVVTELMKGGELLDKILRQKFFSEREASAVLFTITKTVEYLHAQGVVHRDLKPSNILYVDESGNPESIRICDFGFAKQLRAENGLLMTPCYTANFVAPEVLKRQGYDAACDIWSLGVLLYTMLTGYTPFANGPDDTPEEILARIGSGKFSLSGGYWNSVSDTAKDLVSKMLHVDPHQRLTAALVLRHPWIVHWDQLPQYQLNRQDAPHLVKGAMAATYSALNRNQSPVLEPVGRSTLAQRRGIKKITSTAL
Protocol: as §1

Aurora A = biological target: T4, Aurora A (Homo sapiens, UniProt O14965)
T4 construct: purchased Millipore
T4 sequence (O14965 1-403): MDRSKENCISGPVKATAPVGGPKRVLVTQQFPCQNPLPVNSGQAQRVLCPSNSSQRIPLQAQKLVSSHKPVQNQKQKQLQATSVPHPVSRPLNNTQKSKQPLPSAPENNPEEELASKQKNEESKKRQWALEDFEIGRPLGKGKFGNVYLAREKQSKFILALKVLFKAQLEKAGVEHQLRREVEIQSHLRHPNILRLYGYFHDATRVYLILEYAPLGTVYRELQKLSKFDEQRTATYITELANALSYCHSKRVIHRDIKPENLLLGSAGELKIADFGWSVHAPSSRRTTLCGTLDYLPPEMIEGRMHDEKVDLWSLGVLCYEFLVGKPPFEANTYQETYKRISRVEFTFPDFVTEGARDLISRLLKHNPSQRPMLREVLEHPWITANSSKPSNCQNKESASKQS
Protocol: as §1

MKK6 = biological target: T5, MKK6 (Homo sapiens, UniProt P52564); conditions: read-out: kinase activity compared with the control
T5 construct: purchased Millipore
Protocol: as §1

Flt3 = biological target: T6, Flt3 (Homo sapiens, UniProt P36888); conditions: read-out: kinase activity compared with the control
T6 construct: purchased Millipore
Protocol: as §1

PKB beta (Akt2) = biological target: T7, PKB beta (Akt2) (Homo sapiens, UniProt P31751)
T7 construct: purchased Millipore
T7 sequence (P31751 whole entry, species assumed): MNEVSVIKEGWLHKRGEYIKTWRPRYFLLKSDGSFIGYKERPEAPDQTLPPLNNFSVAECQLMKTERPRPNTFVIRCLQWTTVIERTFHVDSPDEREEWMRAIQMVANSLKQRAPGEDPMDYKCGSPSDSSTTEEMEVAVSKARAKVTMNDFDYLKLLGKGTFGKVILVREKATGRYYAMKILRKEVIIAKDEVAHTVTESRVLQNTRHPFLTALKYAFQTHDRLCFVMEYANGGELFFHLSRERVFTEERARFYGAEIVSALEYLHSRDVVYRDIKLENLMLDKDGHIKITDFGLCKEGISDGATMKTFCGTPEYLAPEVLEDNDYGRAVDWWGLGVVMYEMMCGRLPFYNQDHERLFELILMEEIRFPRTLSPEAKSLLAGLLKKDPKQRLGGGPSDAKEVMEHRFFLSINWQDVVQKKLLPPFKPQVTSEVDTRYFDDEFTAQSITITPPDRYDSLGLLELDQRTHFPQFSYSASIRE
Protocol: as §1

KDR = biological target: T8, KDR (Homo sapiens, UniProt P35968); conditions: read-out: kinase activity compared with the control
T8 construct: purchased Millipore
Protocol: as §1

mTOR = biological target: T9, mTOR (Homo sapiens, UniProt P42345); conditions: read-out: kinase activity compared with the control
T9 construct: purchased Millipore
Protocol: as §1

CDK1/cyclinB = biological target: T10, CDK1/cyclinB (Homo sapiens, UniProt P06493); conditions: read-out: kinase activity compared with the control
T10 construct: purchased Millipore
Protocol: as §1

Pim-1 = biological target: T11, Pim-1 (Homo sapiens, UniProt P11309); conditions: read-out: kinase activity compared with the control
T11 construct: purchased Millipore
T11 sequence (P11309 whole entry, species assumed): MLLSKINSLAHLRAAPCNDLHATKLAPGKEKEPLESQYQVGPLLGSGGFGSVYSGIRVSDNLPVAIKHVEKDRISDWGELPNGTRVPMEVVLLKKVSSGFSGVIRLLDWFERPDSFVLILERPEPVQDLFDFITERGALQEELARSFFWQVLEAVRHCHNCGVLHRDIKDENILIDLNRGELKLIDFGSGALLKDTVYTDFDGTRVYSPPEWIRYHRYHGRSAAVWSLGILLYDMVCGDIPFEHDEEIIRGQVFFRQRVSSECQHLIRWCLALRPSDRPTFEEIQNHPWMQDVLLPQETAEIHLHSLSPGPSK
Protocol: as §1

DYRK2 = biological target: T12, DYRK2 (Homo sapiens, UniProt Q92630); conditions: read-out: kinase activity compared with the control
T12 construct: purchased Millipore
Protocol: as §1

CHK2 = biological target: T13, CHK2 (Homo sapiens, UniProt O96017); conditions: read-out: kinase activity compared with the control
T13 construct: purchased Millipore
T13 sequence (O96017 whole entry, species assumed): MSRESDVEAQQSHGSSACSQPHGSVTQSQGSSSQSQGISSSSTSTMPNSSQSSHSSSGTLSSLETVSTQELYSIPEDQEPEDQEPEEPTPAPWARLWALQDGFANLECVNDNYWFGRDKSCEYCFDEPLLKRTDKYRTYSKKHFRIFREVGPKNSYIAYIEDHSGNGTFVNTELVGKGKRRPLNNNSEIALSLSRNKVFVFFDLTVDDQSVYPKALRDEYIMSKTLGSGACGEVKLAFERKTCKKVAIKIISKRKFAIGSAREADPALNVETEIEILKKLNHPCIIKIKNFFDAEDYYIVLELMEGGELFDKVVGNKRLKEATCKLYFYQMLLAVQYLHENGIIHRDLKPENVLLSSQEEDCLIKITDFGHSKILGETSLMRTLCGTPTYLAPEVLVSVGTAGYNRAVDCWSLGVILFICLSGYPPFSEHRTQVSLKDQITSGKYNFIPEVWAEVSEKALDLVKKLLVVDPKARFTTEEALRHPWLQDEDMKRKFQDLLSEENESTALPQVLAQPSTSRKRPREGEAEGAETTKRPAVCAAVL
Protocol: as §1

GSK3 beta = biological target: T14, GSK3 beta (Homo sapiens, UniProt P49841); conditions: read-out: kinase activity compared with the control
T14 construct: purchased Millipore
Protocol: as §1

PI3-K delta = PI3-K delta (Homo sapiens, UniProt O00329); conditions: read-out: kinase activity compared with the control
Protocol: as §1

Abl = biological target: T15, Abl (Homo sapiens, UniProt P00519); conditions: read-out: kinase activity compared with the control
T15 construct: purchased Millipore
Protocol: as §1

mTOR/FKBP12 = biological target: T16, mTOR/FKBP12 (Homo sapiens, UniProt P42345); conditions: read-out: kinase activity compared with the control
T16 construct: purchased Millipore
Protocol: as §1

FAK = biological target: T17, FAK (Homo sapiens, UniProt Q05397); conditions: read-out: kinase activity compared with the control
T17 construct: purchased Millipore
Protocol: as §1

MAPK2 = biological target: T18, MAPK2 (Homo sapiens, UniProt P28482); conditions: read-out: kinase activity compared with the control
T18 construct: purchased Millipore
T18 sequence (P28482 whole entry): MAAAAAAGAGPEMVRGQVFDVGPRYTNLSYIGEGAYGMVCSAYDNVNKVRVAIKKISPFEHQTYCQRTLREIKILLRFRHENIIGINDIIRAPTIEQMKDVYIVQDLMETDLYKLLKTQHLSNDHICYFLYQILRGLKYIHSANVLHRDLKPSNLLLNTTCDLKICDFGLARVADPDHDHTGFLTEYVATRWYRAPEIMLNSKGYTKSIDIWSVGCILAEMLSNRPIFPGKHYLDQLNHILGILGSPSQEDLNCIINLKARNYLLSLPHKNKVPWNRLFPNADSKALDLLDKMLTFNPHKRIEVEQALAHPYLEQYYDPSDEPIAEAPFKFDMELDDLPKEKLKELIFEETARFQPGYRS
Protocol: as §1

PI3-K gamma = PI3-K gamma (Homo sapiens, UniProt P48736); conditions: read-out: kinase activity compared with the control
Protocol: as §1

JNK1 alpha1 = biological target: T19, JNK1 alpha1 (Homo sapiens, UniProt P45983); conditions: 5 μM
T19 construct: purchased Millipore
T19 sequence (P45983 1-384 isoform P45983-2, species assumed): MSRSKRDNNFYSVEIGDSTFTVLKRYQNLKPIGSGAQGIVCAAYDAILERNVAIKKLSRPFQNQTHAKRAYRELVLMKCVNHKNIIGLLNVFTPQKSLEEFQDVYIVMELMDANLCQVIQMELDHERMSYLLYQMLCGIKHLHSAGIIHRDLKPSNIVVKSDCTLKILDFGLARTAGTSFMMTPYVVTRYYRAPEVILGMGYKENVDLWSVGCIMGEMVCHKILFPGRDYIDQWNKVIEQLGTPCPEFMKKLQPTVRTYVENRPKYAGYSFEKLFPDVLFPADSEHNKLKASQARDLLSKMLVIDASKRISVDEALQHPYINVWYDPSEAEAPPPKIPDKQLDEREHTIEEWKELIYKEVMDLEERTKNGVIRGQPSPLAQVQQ
Protocol: as §1

MSK2 = biological target: T20, MSK2 (Homo sapiens, UniProt O75676); conditions: read-out: kinase activity compared with the control
T20 construct: purchased Millipore
Protocol: as §1

EGFR (T790M, L858R) = biological target: T21, EGFR (T790M, L858R) (Homo sapiens, UniProt P00533, L858R/T790M); conditions: 5 μM
T21 construct: purchased Millipore
Protocol: as §1

c-Src = biological target: T22, c-Src (Homo sapiens, UniProt P12931); conditions: read-out: kinase activity compared with the control
T22 construct: purchased Millipore
Protocol: as §1

JNK2 alpha2 = biological target: T23, JNK2 alpha2 (Homo sapiens, UniProt P45984); conditions: 5 μM
T23 construct: purchased Millipore
Protocol: as §1

MSK1 = biological target: T24, MSK1 (Homo sapiens, UniProt O75582); conditions: read-out: kinase activity compared with the control
T24 construct: purchased Millipore
Protocol: as §1

MKK4 = biological target: T25, MKK4 (Mus musculus, UniProt P47809); conditions: read-out: kinase activity compared with the control
T25 construct: purchased Millipore
Protocol: as §1

GSK3 alpha = biological target: T26, GSK3 alpha (Homo sapiens, UniProt P49840); conditions: read-out: kinase activity compared with the control
T26 construct: purchased Millipore
Protocol: as §1

PI3-K beta = PI3-K beta (Homo sapiens, UniProt P42338); conditions: read-out: kinase activity compared with the control
PI3-K beta, sequence (P42338 whole entry, species assumed): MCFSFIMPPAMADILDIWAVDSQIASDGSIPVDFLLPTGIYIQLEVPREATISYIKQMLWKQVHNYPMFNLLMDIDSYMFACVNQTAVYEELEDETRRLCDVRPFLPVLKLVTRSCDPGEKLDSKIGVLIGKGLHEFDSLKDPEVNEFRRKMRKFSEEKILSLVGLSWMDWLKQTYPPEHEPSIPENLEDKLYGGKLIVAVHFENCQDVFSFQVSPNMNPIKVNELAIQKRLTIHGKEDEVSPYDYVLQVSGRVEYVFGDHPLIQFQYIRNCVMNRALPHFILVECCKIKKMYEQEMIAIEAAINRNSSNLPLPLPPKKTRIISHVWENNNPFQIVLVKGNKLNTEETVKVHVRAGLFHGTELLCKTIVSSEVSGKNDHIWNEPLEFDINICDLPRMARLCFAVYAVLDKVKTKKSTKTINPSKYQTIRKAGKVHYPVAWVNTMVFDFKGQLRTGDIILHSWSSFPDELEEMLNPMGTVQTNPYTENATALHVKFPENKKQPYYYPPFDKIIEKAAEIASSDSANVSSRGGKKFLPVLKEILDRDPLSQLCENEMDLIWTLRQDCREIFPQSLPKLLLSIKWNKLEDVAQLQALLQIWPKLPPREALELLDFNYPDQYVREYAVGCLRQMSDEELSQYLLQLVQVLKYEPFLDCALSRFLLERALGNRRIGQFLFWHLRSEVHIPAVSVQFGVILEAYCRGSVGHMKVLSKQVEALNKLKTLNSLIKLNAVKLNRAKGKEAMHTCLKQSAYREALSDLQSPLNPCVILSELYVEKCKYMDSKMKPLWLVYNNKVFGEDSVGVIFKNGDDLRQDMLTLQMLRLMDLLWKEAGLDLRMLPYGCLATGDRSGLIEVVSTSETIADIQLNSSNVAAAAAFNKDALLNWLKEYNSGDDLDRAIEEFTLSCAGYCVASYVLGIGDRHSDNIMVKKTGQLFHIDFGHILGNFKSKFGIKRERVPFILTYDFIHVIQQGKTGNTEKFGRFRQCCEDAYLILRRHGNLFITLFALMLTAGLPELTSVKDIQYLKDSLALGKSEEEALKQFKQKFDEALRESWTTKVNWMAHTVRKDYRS
PI3-K beta, sequence (P27986 whole entry partner, species assumed): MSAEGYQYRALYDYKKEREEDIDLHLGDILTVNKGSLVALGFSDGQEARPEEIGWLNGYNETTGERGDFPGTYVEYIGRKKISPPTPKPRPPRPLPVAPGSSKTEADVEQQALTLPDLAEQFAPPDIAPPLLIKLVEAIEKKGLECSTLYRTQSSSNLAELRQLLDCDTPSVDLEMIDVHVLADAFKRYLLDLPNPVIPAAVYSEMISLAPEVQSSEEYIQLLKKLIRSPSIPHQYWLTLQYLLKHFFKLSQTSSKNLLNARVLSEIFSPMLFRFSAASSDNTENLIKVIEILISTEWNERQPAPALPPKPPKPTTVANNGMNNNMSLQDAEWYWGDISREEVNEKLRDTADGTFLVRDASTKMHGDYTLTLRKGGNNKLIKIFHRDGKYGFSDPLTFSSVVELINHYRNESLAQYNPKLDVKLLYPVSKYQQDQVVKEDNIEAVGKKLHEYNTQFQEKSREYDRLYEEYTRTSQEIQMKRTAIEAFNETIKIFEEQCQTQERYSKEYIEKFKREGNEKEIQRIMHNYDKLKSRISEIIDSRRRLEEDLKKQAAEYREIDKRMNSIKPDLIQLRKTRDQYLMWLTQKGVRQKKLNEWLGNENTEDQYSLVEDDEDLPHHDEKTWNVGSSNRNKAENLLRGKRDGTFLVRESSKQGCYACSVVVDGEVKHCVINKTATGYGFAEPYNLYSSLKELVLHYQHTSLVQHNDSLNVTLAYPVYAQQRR
Protocol: as §1

Work on `O=C(/C=C/c1ccc2c(c1)OCO2)/C=C1/C(=O)Nc2ccccc21` [Compound 1] yielded a remaining activity at 5 µM (MAPK1) of 100%, a remaining activity at 5 µM (MEK1) of 104% and a remaining activity at 5 µM (RSK2) of 94%. The “kinase activity of Aurora A decreased (kinase profile)” value (Aurora A; 5 μM) was “less than 25%”, the remaining activity at 5 µM (Aurora A; Aurora A, read-out: kinase activity compared with the control) was 76% and the remaining activity at 5 µM (MKK6) was 129%. For the same compound, the remaining activity at 5 µM (Flt3) was 92%, the “Akt2 activity suppressed compared with the control (kinase profile)” value (PKB beta (Akt2); 5 μM) was “more than 50%” and the remaining activity at 5 µM (PKB beta (Akt2); PKB beta (Akt2), read-out: kinase activity compared with the control) was 47%. The remaining activity at 5 µM (KDR) was 93%, the remaining activity at 5 µM (mTOR) was 136% and the remaining activity at 5 µM (CDK1/cyclinB) was 86%. For the same compound, the remaining activity at 5 µM (Pim-1) was 96%, the remaining activity at 5 µM (DYRK2) was 97% and the remaining activity at 5 µM (CHK2) was 75%. It also gave a remaining activity at 5 µM (GSK3 beta) of 94%, a remaining activity at 5 µM (PI3-K delta) of 105% and a remaining activity at 5 µM (Abl) of 109%. It also gave a remaining activity at 5 µM (mTOR/FKBP12) of 86%, a remaining activity at 5 µM (FAK) of 104% and a remaining activity at 5 µM (MAPK2) of 102%. For the same compound, the remaining activity at 5 µM (PI3-K gamma) was 100%, the “kinase activity compared with the control” value (JNK1 alpha1) was 104 and the remaining activity at 5 µM (MSK2) was 79%. The “kinase activity compared with the control” value (EGFR (T790M, L858R)) was 101, the remaining activity at 5 µM (c-Src) was 99% and the “kinase activity compared with the control” value (JNK2 alpha2) was 89. The remaining activity at 5 µM (MSK1) was 98%, the remaining activity at 5 µM (MKK4) was 130% and the remaining activity at 5 µM (GSK3 alpha) was 85%. The remaining activity at 5 µM (PI3-K beta) was 103%.
